In patent US20130316374A1, “BREAST CANCER DIAGNOSTICS” (IMBA - INSTITUT FUR MOLEKULARE BIOTECHNOLOGIE GMBH, priority 2010, published 2013):

How the values were obtained:
mammary epithelial cells = experiment: Epithelial proliferation in mammary glands, in situ Ki67 immunostaining; format: in vivo, mouse
Protocol: a, Epithelial proliferation in mammary glands of control littermates and RANK^Δmam females 3 days after sham treatment and MPA implantation. Proliferation was determined by in situ Ki67 immunostaining. b,c, Marked increase of the stem cell-enriched CD24^+CD49^high population (MaSC) in MPA-treated mammary glands in control but not in RANK^Δmam mammary glands. b, Representative FACS profiles showing CD24 and CD49 expression of lineage negative (CD31^− (endothelial cells) CD45^− (hematopoietic cells) […] (erythroid cells)) of mammary MaSCs from MPA- or sham-treated 8-week old virgin females. c, Quantification of MaSC-enriched CD24^+CD49^high population from mammary glands of MPA- or sham-treated virgin RANK^Δmam and littermate control females. For all MaSCs experiments mice were treated with MPA for 3 days. n=4 per group+/−sem. *P<0.05; ***P<0.001 (Student's t-test).
At least 1000 mammary gland epithelial cells were counted per mouse. n=3 mice per genotype. **P<0.005; ***P<0.001 (Student's t-test). b, Quantification of in situ Ki67 immunostained cells per acinus from mammary glands of control littermate and RANK^Δmam females on day 3 after MPA s.c. implantation. […] At least 1000 cells were counted per mammary gland. n=3 per genotype. In b, and c, data are shown as percentage of acini/ducts with low (<20% of epithelial cells are Ki67^+), medium (20-80% of epithelial cells are Ki67^+) and high (>80% of epithelial cells are Ki67^+) numbers of proliferating cells+/−sem. ***P<0.001; *P<0.03 (Student's t-test). d, Epithelial proliferation in mammary glands of control littermates and RANK^Δmam females 1 day after i.p. injection of PBS or RANKL (1 μg). Proliferation was determined in situ Ki67 immunostaining. Magnifications ×40. e, Quantification of epithelial proliferation 1 day after i.p. injection of PBS or RANKL (1 μg). Mean percentages of Ki67 positive cells+/−sem are shown. *P<0.03; n=5 (Student's t-test).
For histological analysis, 5 μm sections were cut and stained with hematoxylin and eosin (H&E). Whole-mount staining of mammary glands was performed as described. For immunoperoxidase staining paraffin-embedded sections were […] and antigenic epitopes exposed using a 10 mM citrate buffer or microwaving. Sections were incubated with antibodies to cytokeratine 5, cytokeratine 14, E-cadherin, anti-Ki67 (Novocastra) and anti-active Caspase 3 (Cell Signaling) and visualized using peroxidase-conjugated secondary antibodies. Histomorphometric indices (proliferation and apoptosis) were calculated as the number of positive epithelial cells divided by the total number of epithelial cells, with no fewer than 1000 nuclei for Ki67 stainings and no fewer than 5000 cells for active Caspase 3 staining counted per section.
Recently it has been reported that endogenous progesterone affects the numbers of Lin-CD24+CD49f^hi stem cells during pregnancy^15 and the estrous cycle^16. In both studies, the RANKL/RANK system was implicated based on in vivo whole body Ab blocking studies and RT-PCR expression, however, it was not known whether this is a direct effect of RANKL-RANK in mammary epithelial cells rather than a secondary effect. Therefore it was assayed whether progestins such as MPA can also expand Lin-CD24+CD49f^hi cells.

[1] = tested on: SKBR3 breast cancer cells; experiment: Growth curve of SKBR3 breast cancer cells; format: cell-based, human; conditions: RANKL (1 μg/ml), 3 days
Protocol: a, Western blotting for phosphorylated (P) p65 NFκB, total p65 NFκB, phosphorylated (P) IκBα, total IκBα, phosphorylated (P) ERK1/2, total ERK1/2, phosphorylated (P) p38-MAPK, and p38-MAPK in human SKBR3 breast cancer cells in response to RANKL stimulation (1 μg/ml). Data are representative of 3 experiments. b, Growth curve of SKBR3 breast cancer cells cultured in normal growth medium (control, DMEM supplemented with 10% FCS) or in the presence of RANKL (1 μg/ml). Cell numbers were determined by counting live cells (trypan blue-exclusion) over 3 days. c, Onset of palpable mammary tumors in NFATc1^Δmam (n=10) and age matched littermate control (n=16) females treated with MPA pellets and DMBA. Data are shown as percentage of tumor free mice after the last DMBA challenge. No significant difference was found. d, Quantification of NFATc1 mRNA expression in purified mammary epithelial cells (MECs) and MPA-driven mammary tumors from NFATc1^Δmam and littermate control females. mRNA was determined by qRT-PCR. Data are shown as fold change compared to control (+/−sem). n=5 Per group. *P<0.05 (Student's t-test).

| Molecule | MPA-induced proliferation of mammary epithelial cells (mammary epithelial cells; RANK^Δmam females) | acini with very low proliferation rates (Ki67) (mammary epithelial cells; RANK^Δmam females, day 3 after MPA s.c. implantation) | acini with signs of medium to high proliferation (Ki67) (mammary epithelial cells; control females, day 3 after MPA s.c. implantation) | proliferation of mammary epithelial cells (mammary epithelial cells; wild type population, MPA treatment) | proliferation of SKBR3 cells [1] | proliferation of mammary gland epithelial cells (mammary epithelial cells; nulliparous females, 1 day after i.p. injection of RANKL (1 μg)) |
| --- | --- | --- | --- | --- | --- | --- |
| CC(=O)O[C@]1(C(C)=O)CC[C@H]2[C@@H]3C[C@H](C)C4=CC(=O)CC[C@]4(C)[C@H]3CC[C@@]21C [MPA, medroxyprogesterone acetate] | significantly reduced | more than 60% | ~80% | triggers massive proliferation of mammary epithelial cells | – | – |
| RANKL: Receptor Activator of NF-κB Ligand; recombinant murine RANKL used for stimulation (protein, UniProt O35235 139-316, looked up) Tumor necrosis factor ligand …: FSGAPAMMEGSWLDVAQRGKPEAQPFAHLTINAASIPSGSHKVTLSSWYHDRGWAKISNMTLSNGKLRVNQDGFYYLYANICFRHHETSGSVPTDYLQLMVYVVKTSIKIPSSHNLMKGGSTKNWSGNSEFHFYSINVGGFFKLRAGEEISIQVSNPSLLDPDQDATYFGAFKVQDID | – | – | – | – | induced | triggered proliferation of mammary gland epithelial cells |
